Assay results from patent US5488051A, “Substituted 5,6-dihydro-5-oxo-1,4-dithiino-(2,3-d)-pyridazine-2,3-dicarbonitriles, compositions containing them and their use as antimicrobials” (The Dow Chemical Company, priority 1994, dated 1996).
Values after ≈ are worked out from the molar mass of the structure shown. Like-named read-outs stand apart in the source and are kept apart here.

How the values were obtained:
Salmonella choleraesuis = assay: MIC for Salmonella choleraesuis, nutrient agar; type: cell-based, Salmonella choleraesuis ATCC 10708; details: Salmonella enterica, 30° C., 48 hours, read-out: Minimum Inhibitory Concentration (MIC), SC
Procedure, shortened: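 Overnight nutrient-broth cultures (24 h, 30° C, shaken) diluted to 10^8 CFU/mL and spotted with a Steer's Replicator onto compound-containing nutrient agar plates, neutral and alkaline pH. Incubation 48 h at 30° C; MIC read as the lowest level preventing visible growth.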

[1] = system: Aureobasidium pullulan (Ap); assay: MIC for Aureobasidium pullulan, malt yeast agar; type: cell-based, Aureobasidium pullulan ATCC 16622; details: malt yeast agar; 30° C.; 48 hours for yeast and 72 hours for fungi; read-out: Minimum Inhibitory Concentration (MIC), Ap
Procedure, shortened: (§1)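 Agar dilution on malt yeast agar with compound (from 1% acetone/water solution) at final 0, 1.0, 2.5, 5, 10, 25, 50, 100, 250, 500 ppm. Plates inoculated by replicator with saline suspensions (1:9 diluted) of 7-day cultures; incubated at 30 °C, read at 48 h for yeast and 72 h for fungi.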

Fusarium oxysporum (Fo) = assay: MIC for Fusarium oxysporum, malt yeast agar; type: cell-based, Fusarium oxysporum ATCC 48112; details: malt yeast agar; 30° C., 72 hours for fungi; read-out: Minimum Inhibitory Concentration (MIC), Fo
Procedure, shortened: as §1

marine organism growth = assay: Marine antifouling rating of coated test panels exposed to marine environment; set-up: species or system marine organisms; details: scale 10 (completely free of growth) to 0 (completely covered); for Marine Antifouling Rating, 10 Week Test, Bottom Panel / Marine Antifouling Rating, 10 Week Test, Top Panel: 10 weeks; for Marine Antifouling Rating, 10 Week Test, Top Panel: untreated Control 7
Protocol: Test panels are prepared from clear, rigid polyvinyl chloride film that is 0.381×10^-3 m thick and has one textured surface. The test panels are 0.1524 m by 0.1524 m squares that have 0.00635 m holes punched at corners on 0.127 m centers. A 0.102 square template, with a 0.067 m diameter hole at the center, is attached to the center of the textured surface of the test panels.
A candidate marine antifoulant compound (1.0 g) is stirred into a resinous latex binder (9.0 g). A portion of the compound/binder mixture (1.5 g) is added to the center of the test panel and uniformly spread over the circular area inside the template.
Water is added dropwise as needed to properly spread the compound/binder mixture. The template prevents the compound/binder mixture from spreading beyond the uncovered area. The test panel is allowed to sit for between ten to thirty minutes until the edge of the spread compound/binder mixture has dried. The template is then removed. The test panel is then allowed to dry for 8 to 12 hours at room temperature.
Two test panels are prepared for each candidate marine antifoulant compound. Two control test panels are also prepared by only treating with the resinous latex binder. One test panel of each candidate marine […] compound is attached over a white background to the topside of an exposure support apparatus. The second test panel is attached over a black background to the underside of the exposure support apparatus. The exposure support apparatus is placed horizontally 0.0254 m under a marine surface with the white background topside facing up. The exposure support apparatus is exposed to the marine environment for both 10 and 20 weeks during which time the control test panels become substantially covered with mature marine organism growth on both the topside and underside exposures.
After being removed from the exposure support apparatus, each test panel is inspected and rated for marine organism growth on both the treated and untreated areas of the test panel. The marine organisms present on the treated and untreated areas are noted. The presence of algae spores and bacterial slime are noted but not included in rating each test panel. The test panels are rated on a scale from 10 (representing completely free of marine organism growth) to 0 (representing completely covered with marine organism growth).
In Table V, the marine antifouling rating values for some of the compounds listed in Table I are set forth, as well as the ratings for control panels (using no marine antifouling compound, and referred to in Table V as "Control") and panels using a standard commercial marine antifouling compound (with copper (I) oxide (Cu2 O) as the active agent and referred to in Table V as "STANDARD II").

[2] = bottom panel (black background), untreated Control 1

Compound	MIC (Salmonella choleraesuis; pH 6.8, nutrient agar)	MIC (Salmonella choleraesuis; pH 8.2, nutrient agar)	MIC [1]	MIC (Fusarium oxysporum (Fo))	Marine Antifouling Rating, 10 Week Test, Bottom Panel (marine organism growth; [2])	Marine Antifouling Rating, 10 Week Test, Top Panel (marine organism growth; top panel (white background))	Marine Antifouling Rating, 20 Week Test, Bottom Panel (marine organism growth; 20 weeks, bottom panel (black background), untreated Control 1)	Marine Antifouling Rating, 20 Week Test, Top Panel (marine organism growth; 20 weeks, top panel (white background), untreated Control 1)
N#CC1=C(C#N)Sc2c(cnn(-c3ccc(Br)cc3)c2=O)S1 [C, 5,6-dihydro-6-(4-bromophenyl)-5-oxo-1,4-dithiino-(2,3-d)-pyridazine-2,3-dicarbonitrile]	100 µg/mL (≈ 257 µM)	> 500 µg/mL	10 µg/mL (≈ 25.7 µM)	10 µg/mL (≈ 25.7 µM)	1	7	–	–
Cc1ccc(-n2ncc3c(c2=O)SC(C#N)=C(C#N)S3)cc1 [B, 5,6-dihydro-6-(4-methylphenyl)-5-oxo-1,4-dithiino-(2,3-d)-pyridazine-2,3-dicarbonitrile]	> 500 µg/mL	> 500 µg/mL	< 10 µg/mL	25 µg/mL (≈ 77.1 µM)	4	10	1	1
